± gives the standard deviation of the averaged measurements.
Tests used:
Experiment in all cases: level (log10 ratio to DMSO vehicle control); higher = higher biomarker level / cell amount than vehicle control
[1] = compound: C=CC(=O)OCC(F)(F)C(F)(F)C(F)(F)COC(=O)C=C [1H,1H,5H,5H-Perfluoro-1,5-pentanediol diacrylate]; details: 6700 nM; in DMSO
Protocol: (§1)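 BioMAP Diversity Plus panel of 12 human primary cell co-culture systems (3C, 4H, LPS, SAg, BT, BF4T, BE3C, CASM3C, HDF3CGF, KF3CT, MyoF, Mphg). Compounds were added 1 h before stimulation and left for 24 h (MyoF 48 h; BT 72 h for soluble read-outs or 6 d for IgG). Biomarkers were read by ELISA, cytotoxicity by SRB, PBMC viability and proliferation by Alamar Blue. Each well value was divided by the mean of 8 DMSO control wells on the same plate and log10 transformed; duplicate blinded samples were tested at 4 concentrations.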

[2] = compound: O=C(O)C=CC(F)(C(F)(F)F)C(F)(F)F [3-(Perfluoroisopropyl)-2-propenoic acid]; details: in DMSO
Protocol: as §1

[3] = compound: O=C(O)C(F)(F)C(F)(F)C(F)(F)C(F)(F)C(F)(F)C(F)(F)C(F)(F)C(F)(F)C(F)(F)C(F)F [11-H-Perfluoroundecanoic acid]; details: in DMSO
Protocol: as §1

[4] = compound: O=S(=O)(Cl)C(F)(F)C(F)(F)C(F)(F)C(F)(F)C(F)(F)C(F)(F)C(F)(F)C(F)(F)F [Perfluoro-1-octanesulfonyl chloride]; details: in DMSO
Protocol: as §1

Heptafluorobutyl iodide = compound: FC(F)(F)C(F)(F)C(F)(F)CI [Heptafluorobutyl iodide]; details: in DMSO
Protocol: as §1

[5] = compound: NC(=O)C(F)(F)C(F)(F)C(F)(F)C(F)F; details: in DMSO
Protocol: as §1

[6] = compound: COC(=O)C(F)(F)C(F)(F)OC(F)(C(F)(F)F)C(F)(F)OC(F)=C(F)F [Methyl perfluoro(3-(1-ethenyloxypropan-2-yloxy)propanoate)]; details: in DMSO
Protocol: as §1

[7] = compound: O=S(=O)(O)C(F)(F)C(F)(F)C(F)(F)C(F)(F)C(F)(F)C(F)(F)C(F)(F)C(F)(F)C(F)(F)C(F)(F)F [Sodium perfluorodecanesulfonate]; details: in DMSO
Protocol: as §1

[8] = compound: FC(F)(F)C(F)(F)C(F)(F)C(F)(F)C(F)(F)C(F)(F)C(F)(F)I [1-Iodopentadecafluoroheptane]; details: in DMSO
Protocol: as §1

[9] = compound: C=C(C)C(=O)OCCC(F)(F)C(F)(F)C(F)(F)C(F)(F)C(F)(F)C(F)(F)F [6:2 Fluorotelomer methacrylate]; details: in DMSO
Protocol: as §1

[10] = compound: NS(=O)(=O)C(F)(F)C(F)(F)C(F)(F)C(F)(F)C(F)(F)C(F)(F)F [Perfluorohexanesulfonamide]; details: in DMSO
Protocol: as §1

[11] = compound: O=S(=O)(O)CCC(F)(F)C(F)(F)C(F)(F)C(F)(F)C(F)(F)C(F)(F)F [6:2 Fluorotelomer sulfonic acid]; details: in DMSO
Protocol: as §1

[12] = compound: FC(F)(F)C(F)(F)CNCC(F)(F)C(F)(F)F [Bis(1H,1H-perfluoropropyl)amine]; details: in DMSO
Protocol: as §1

[13] = compound: O=S(=O)(F)C(F)(F)C(F)(F)C(F)(F)C(F)(F)C(F)(F)C(F)(F)C(F)(F)C(F)(F)F [Perfluorooctanesulfonyl fluoride]; details: in DMSO
Protocol: as §1

Hexafluoroamylene glycol = compound: OCC(F)(F)C(F)(F)C(F)(F)CO [Hexafluoroamylene glycol]; details: in DMSO
Protocol: as §1

Octafluoroadipamide = compound: NC(=O)C(F)(F)C(F)(F)C(F)(F)C(F)(F)C(N)=O [Octafluoroadipamide]; details: in DMSO
Protocol: as §1

[14] = compound: FC(F)(F)C(F)(F)C(F)(F)C(F)(F)C(F)(F)C(F)(F)CC1CO1 [3-(Perfluorohexyl)-1,2-epoxypropane]; details: in DMSO
Protocol: as §1

Nonafluoropentanamide = compound: NC(=O)C(F)(F)C(F)(F)C(F)(F)C(F)(F)F [Nonafluoropentanamide]; details: in DMSO
Protocol: as §1

[15] = compound: FC(F)(F)C(F)(F)C(F)(F)CC1CO1 [1H,1H-Heptafluorobutyl epoxide]; details: in DMSO
Protocol: as §1

CASM3C:CD106/VCAM-1
level (log10) [1]: -0.119 ± 0.011
level (log10) ([2]; 6700 nM): -0.0315 ± 0.013
level (log10) ([2]; 20000 nM): -0.015 ± 0.0014
level (log10) ([2]; 60000 nM): -0.0045 ± 0.071
level (log10) ([3]; 6700 nM): -0.016 ± 0.027
level (log10) ([3]; 20000 nM): -0.023 ± 0.021
level (log10) ([4]; 6700 nM): -0.0395 ± 0.0092
level (log10) ([4]; 20000 nM): -0.0455 ± 0.015
level (log10) ([4]; 60000 nM): -0.0235 ± 0.032
level (log10) (Heptafluorobutyl iodide; 6700 nM): -0.023 ± 0.013
level (log10) (Heptafluorobutyl iodide; 20000 nM): -0.0245 ± 0.019
level (log10) (Heptafluorobutyl iodide; 60000 nM): -0.028 ± 0.0042
level (log10) ([5]; 6700 nM): -0.009 ± 0.0057
level (log10) ([5]; 20000 nM): -0.003 ± 0.014
level (log10) ([5]; 60000 nM): -0.008 ± 0.014
level (log10) ([6]; 6700 nM): -0.024 ± 0.011
level (log10) ([6]; 20000 nM): -0.04 ± 0.021
level (log10) ([7]; 1500 nM): -0.043 ± 0.037
level (log10) ([7]; 4400 nM): -0.0795 ± 0.026
level (log10) ([7]; 13000 nM): -0.158 ± 0.037
level (log10) ([7]; 40000 nM): -0.153 ± 0.045
level (log10) ([8]; 6700 nM): -0.0125 ± 0.005
level (log10) ([8]; 20000 nM): -0.019 ± 0.034
level (log10) ([9]; 6700 nM): -0.0005 ± 0.011
level (log10) ([9]; 20000 nM): -0.005 ± 0.016
level (log10) ([9]; 60000 nM): -0.005 ± 0.0042
level (log10) ([10]; 6700 nM): -0.014 ± 0.016
level (log10) ([10]; 20000 nM): -0.0285 ± 0.005
level (log10) ([10]; 60000 nM): -0.0235 ± 0.0064
level (log10) ([11]; 6700 nM): -0.008 ± 0.011
level (log10) ([11]; 20000 nM): -0.0325 ± 0.022
level (log10) ([11]; 60000 nM): -0.0605 ± 0.026
level (log10) ([12]; 6700 nM): -0.06 ± 0.024
level (log10) ([12]; 20000 nM): -0.0545 ± 0.026
level (log10) ([12]; 60000 nM): -0.0105 ± 0.053
level (log10) ([13]; 6700 nM): 0.0015 ± 0.032
level (log10) ([13]; 20000 nM): 0.0035 ± 0.05
level (log10) ([13]; 60000 nM): -0.008 ± 0.0085
level (log10) (Hexafluoroamylene glycol; 6700 nM): -0.0015 ± 0.023
level (log10) (Hexafluoroamylene glycol; 20000 nM): -0.012 ± 0.025
level (log10) (Hexafluoroamylene glycol; 60000 nM): -0.0015 ± 0.021
level (log10) (Octafluoroadipamide; 6700 nM): -0.0525 ± 0.005
level (log10) (Octafluoroadipamide; 20000 nM): -0.04 ± 0.018
level (log10) (Octafluoroadipamide; 60000 nM): -0.0275 ± 0.033
level (log10) ([14]; 6700 nM): -0.024 ± 0.0099
level (log10) ([14]; 20000 nM): -0.0175 ± 0.022
level (log10) ([14]; 60000 nM): -0.01 ± 0.034
level (log10) (Nonafluoropentanamide; 6700 nM): -0.0405 ± 0.039
level (log10) (Nonafluoropentanamide; 20000 nM): -0.0105 ± 0.0035
level (log10) (Nonafluoropentanamide; 60000 nM): 0.01 ± 0.042
level (log10) ([15]; 6700 nM): -0.015 ± 0.035
level (log10) ([15]; 20000 nM): -0.031 ± 0.014
level (log10) ([15]; 60000 nM): 0.0055 ± 0.013

Reference: the supplement of paper PMC10331698
